We go through 20 compounds from the NIST ThermoML archive (doi:10.1021/je500845d).

Numbers after ± are expanded uncertainties.

A short description of data set [1]: Molar enthalpy of transition or fusion. Particulars: Crystal; DSC.
The conditions of data set [2]: Crystal; DTA.

Turning to `O=C(O)C(O)c1ccc(Cl)cc1` (stereo not given) [2-(4-chlorophenyl)-2-hydroxyacetic acid], in data set [1], the “Molar enthalpy of transition or fusion” value is 3.87 ± 0.311 kcal/mol. Moreover, the Normal melting temperature in data set [2] is 120.1 ± 1 °C.
Take `Cc1ccc(C(O)C(=O)O)cc1` (stereo not given) [2-hydroxy-2-(p-tolyl)acetic acid]: the “Molar enthalpy of transition or fusion” value in data set [1] worked out at 6.12 ± 0.311 kcal/mol. In addition, the Normal melting temperature in data set [2] is 143.8 ± 1 °C.
Turning to `O=C(O)[C@@H](O)c1ccc(F)cc1Cl` [(S)-2-(2-chloro-4-fluorophenyl)-2-hydroxyacetic acid], the “Molar enthalpy of transition or fusion” value in data set [1] was 4.8 ± 0.311 kcal/mol. Besides, the Normal melting temperature in data set [2] was 132.8 ± 1 °C.
Regarding `O=C(O)C(O)c1ccc(I)cc1` (stereo not given) [2-hydroxy-2-(4-iodophenyl)acetic acid], the “Molar enthalpy of transition or fusion” value in data set [1] was 7.27 ± 0.311 kcal/mol. Also, the Normal melting temperature in data set [2] was determined as 142.2 ± 1 °C.
On to `O=C(O)[C@@H](O)c1ccc(Cl)cc1F` [(S)-2-(4-chloro-2-fluorophenyl)-2-hydroxyacetic acid], for which the “Molar enthalpy of transition or fusion” value in data set [1] came out at 3.61 ± 0.287 kcal/mol. Moreover, in data set [2], the Normal melting temperature is 107.8 ± 1 °C.
In the same order, the values of `O=C(O)C(O)c1ccc(Cl)cc1F` (stereo not given) [2-(4-chloro-2-fluorophenyl)-2-hydroxyacetic acid] are 4.23 ± 0.311 kcal/mol and 90.5 ± 1 °C.
On the same counts, the results for `Cc1ccc([C@H](O)C(=O)O)cc1` [(S)-2-hydroxy-2-(p-tolyl)acetic acid] are 5.35 ± 0.311 kcal/mol and 131.5 ± 1 °C.
In the same order, the values of `O=C(O)C(O)c1ccc(F)cc1Cl` (stereo not given) [2-chloro-4-fluoromandelic acid] are 4.35 ± 0.311 kcal/mol and 97.6 ± 1 °C.
Take `O=C(O)[C@@H](O)c1cccc(Br)c1` [(S)-2-(3-bromophenyl)-2-hydroxyacetic acid]: the “Molar enthalpy of transition or fusion” value in data set [1] is 5.5 ± 0.311 kcal/mol. The Normal melting temperature in data set [2] turned out to be 103.1 ± 1 °C.
On the same counts, the results for `Cc1ccccc1C(O)C(=O)O` (stereo not given) [2-hydroxy-2-(o-tolyl)acetic acid] are 5.14 ± 0.311 kcal/mol and 103.8 ± 1 °C.
As for `O=C(O)C(O)c1ccccc1I` (stereo not given) [2-hydroxy-2-(2-iodophenyl)acetic acid], the “Molar enthalpy of transition or fusion” value in data set [1] amounted to 5.98 ± 0.311 kcal/mol. For the same compound, the Normal melting temperature in data set [2] is 109.0 ± 1 °C.
Consider `O=C(O)[C@@H](O)c1ccc(Cl)cc1` [(S)-2-(4-chlorophenyl)-2-hydroxyacetic acid], for which, in data set [1], the “Molar enthalpy of transition or fusion” value came out at 6.48 ± 0.311 kcal/mol. Further, the Normal melting temperature in data set [2] is 119.6 ± 1 °C.
Take `O=C(O)C(O)c1cccc(Br)c1` (stereo not given) [2-(3-bromophenyl)-2-hydroxyacetic acid]: in data set [1], the “Molar enthalpy of transition or fusion” value was found to be 7.19 ± 0.311 kcal/mol. Also, the Normal melting temperature in data set [2] is 119.6 ± 1 °C.
On to `O=C(O)C(O)c1ccccc1Br` (stereo not given) [2-(2-bromophenyl)-2-hydroxyacetic acid], for which the “Molar enthalpy of transition or fusion” value in data set [1] came to 5.33 ± 0.311 kcal/mol. For the same compound, the Normal melting temperature in data set [2] is 86.8 ± 1 °C.
`O=C(O)C(O)c1ccc(Br)cc1` (stereo not given) [2-(4-bromophenyl)-2-hydroxyacetic acid]: the “Molar enthalpy of transition or fusion” value in data set [1] stood at 4.25 ± 0.311 kcal/mol. In addition, the Normal melting temperature in data set [2] worked out at 118.1 ± 1 °C.
`O=C(O)[C@@H](O)c1ccccc1Br` [(S)-2-(2-bromophenyl)-2-hydroxyacetic acid]: the “Molar enthalpy of transition or fusion” value in data set [1] worked out at 5.35 ± 0.311 kcal/mol. For the same compound, the Normal melting temperature in data set [2] amounted to 119.4 ± 1 °C.
For the compound `Cc1cccc([C@H](O)C(=O)O)c1` [(S)-2-hydroxy-2-(m-tolyl)acetic acid], the “Molar enthalpy of transition or fusion” value in data set [1] is 6.98 ± 0.311 kcal/mol. For the same compound, the Normal melting temperature in data set [2] worked out at 109.7 ± 1 °C.
As for `O=C(O)C(O)c1cccc(I)c1` (stereo not given) [2-hydroxy-2-(3-iodophenyl)acetic acid], in data set [1], the “Molar enthalpy of transition or fusion” value came out at 5.88 ± 0.311 kcal/mol. For the same compound, the Normal melting temperature in data set [2] was determined as 97.0 ± 1 °C.
In the case of `O=C(O)[C@@H](O)c1ccc(Br)cc1` [(S)-2-(4-bromophenyl)-2-hydroxyacetic acid], the “Molar enthalpy of transition or fusion” value in data set [1] amounted to 4.11 ± 0.311 kcal/mol. In addition, the Normal melting temperature in data set [2] is 127.6 ± 1 °C.
For `Cc1cccc(C(O)C(=O)O)c1` (stereo not given) [2-hydroxy-2-(m-tolyl)acetic acid], the “Molar enthalpy of transition or fusion” value in data set [1] came to 6.12 ± 0.311 kcal/mol. Further, the Normal melting temperature in data set [2] was 92.4 ± 1 °C.
